Read-outs that look alike come from different tables or passages of the source.
Molecular target: SARS-CoV-2 3CL-protease (Severe acute respiratory syndrome coronavirus 2 (2019-nCoV) (SARS-CoV-2), UniProt P0DTD1)
Experiment: SARS-CoV-2 3C-like (3CL) protease fluorescence assay (FRET)
Format: biochemical

Compound	IC50 (read-out: FRET IC50)	further results
CC(C)C[C@H](NC(=O)OCc1ccccc1)C(=O)N1C[C@]2(C[C@H]1C#N)C(=O)Nc1ccccc12 [Compound 1]	0.1 to 1 µM	–
N#C[C@@H]1C[C@@]2(CN1C(=O)[C@H](CC1CCC1)NC(=O)OCc1ccccc1)C(=O)Nc1ccccc12 [Compound 2]	< 0.1 µM	–
CC(C)(C)[C@H](NC(=O)OCc1ccccc1)C(=O)N1C[C@]2(C[C@H]1C#N)C(=O)Nc1ccccc12 [Compound 3]	> 1 µM	–
N#C[C@@H]1C[C@@]2(CN1C(=O)[C@H](CC1CC1)NC(=O)OCc1ccccc1)C(=O)Nc1ccccc12 [Compound 4]	< 0.1 µM	–
CC(C)(C)C[C@H](NC(=O)OCc1ccccc1)C(=O)N1C[C@]2(C[C@H]1C#N)C(=O)Nc1ccccc12 [Compound 5]	< 0.1 µM	–
CC(OC(C)(C)C)[C@H](NC(=O)OCc1ccccc1)C(=O)N1C[C@]2(C[C@H]1C#N)C(=O)Nc1ccccc12 (stereo partly shown) [Compound 6]	–	IC50: > 1 µM
CC(C)(F)C[C@H](NC(=O)OCc1ccccc1)C(=O)N1C[C@]2(C[C@H]1C#N)C(=O)Nc1ccccc12 [Compound 7]	< 0.1 µM	–
CC(C)C[C@H](NC(=O)OCC1(c2ccccc2)CC1)C(=O)N1C[C@]2(C[C@H]1C#N)C(=O)Nc1ccccc12 [Compound 8]	< 0.1 µM	–
CC(C)C[C@H](NC(=O)OC(C)(C)c1cccc(Cl)c1)C(=O)N1C[C@]2(C[C@H]1C#N)C(=O)Nc1ccccc12 [Compound 9]	0.1 to 1 µM	–
CC(C)(C)OC[C@H](NC(=O)OCc1ccccc1)C(=O)N1C[C@]2(C[C@H]1C#N)C(=O)Nc1ccccc12 [Compound 10]	0.1 to 1 µM	–
COc1cccc2[nH]c(C(=O)N[C@@H](CC(C)C)C(=O)N3C[C@]4(C[C@H]3C#N)C(=O)Nc3ccccc34)cc12 [Compound 11]	< 0.1 µM	–
COc1cccc2[nH]c(C(=O)N[C@H](CC(C)C)C(=O)N3C[C@]4(C[C@H]3C#N)C(=O)Nc3ccccc34)cc12 [Compound 12]	> 1 µM	–
COc1cccc2[nH]c(C(=O)N[C@@H](CC3CCCCC3)C(=O)N3C[C@]4(C[C@H]3C#N)C(=O)Nc3ccccc34)cc12 [Compound 13]	< 0.1 µM	–
COc1cccc2[nH]c(C(=O)N[C@H](CC3CCCCC3)C(=O)N3C[C@]4(C[C@H]3C#N)C(=O)Nc3ccccc34)cc12 [Compound 14]	0.1 to 1 µM	–
COc1cccc2[nH]c(C(=O)N[C@@H](CC(C)(C)C)C(=O)N3C[C@]4(C[C@H]3C#N)C(=O)Nc3ccccc34)cc12 [Compound 15]	< 0.1 µM	–
COc1cccc2[nH]c(C(=O)N[C@H](CC(C)(C)C)C(=O)N3C[C@]4(C[C@H]3C#N)C(=O)Nc3ccccc34)cc12 [Compound 16]	0.1 to 1 µM	–
COc1cccc2[nH]c(C(=O)N[C@@H](CC3CCC3)C(=O)N3C[C@]4(C[C@H]3C#N)C(=O)Nc3ccccc34)cc12 [Compound 17]	< 0.1 µM	–
CC(C)(C)[C@H](NC(=O)c1cc2c(F)cccc2[nH]1)C(=O)N1C[C@]2(C[C@H]1C#N)C(=O)Nc1ccccc12 [Compound 18]	> 1 µM	–
COc1cccc2[nH]c(C(=O)N[C@@H](CC3CC3)C(=O)N3C[C@]4(C[C@H]3C#N)C(=O)Nc3ccccc34)cc12 [Compound 19]	< 0.1 µM	–
CC(C)(C)C[C@H](NC(=O)c1cc2c(F)c(F)ccc2[nH]1)C(=O)N1C[C@]2(C[C@H]1C#N)C(=O)Nc1ccccc12 [Compound 20]	< 0.1 µM	–
COc1cccc2[nH]c(C(=O)N[C@H](C(=O)N3C[C@]4(C[C@H]3C#N)C(=O)Nc3ccccc34)C(C)OC(C)(C)C)cc12 (stereo partly shown) [Compound 22]	–	IC50: 0.1 to 1 µM
COc1cccc2[nH]c(C(=O)N[C@@H](CC(C)C)C(=O)N3C[C@]4(C[C@H]3C=O)C(=O)Nc3ccccc34)cc12 [Compound 23]	< 0.1 µM	–
CC(C)C[C@H](NC(=O)c1cc2c(F)cccc2[nH]1)C(=O)N1C[C@]2(C[C@H]1C=O)C(=O)Nc1ccccc12 [Compound 25]	< 0.1 µM	–
COc1cc(C#N)cc2[nH]c(C(=O)N[C@@H](CC(C)C)C(=O)N3C[C@]4(C[C@H]3C#N)C(=O)Nc3ccccc34)cc12 [Compound 26]	–	IC50 (recombinant SARS-CoV-2 3CL-protease 10 nM, 30 min preincubation, run in duplicate, read-out: FRET IC50): 0.1 to 1 µM
CC(C)C[C@H](NC(=O)c1cc2c(F)cccc2[nH]1)C(=O)N1C[C@]2(C[C@H]1C#N)C(=O)Nc1ccccc12 [Compound 27]	< 0.1 µM	–

Reference: patent US11352363B1, “Spiropyrrolidine derived antiviral agents” (Enanta Pharmaceuticals, Inc., priority 2020, dated 2022)
